Test results published in ChEMBL document CHEMBL3885881, “DrugMatrix”.

Species on record: Rattus norvegicus
Assay: DrugMatrix - Regimen: Daily Repeat
Assay type: toxicity, organism-based, Sprague-Dawley
Set-up: regimen Daily Repeat, gender Male, age 6-8 weeks
Settings: in vivo, po, route oral GAVAGE, vehicle .5 % CMC; for BASOPHIL / EOSINOPHIL / ERYTHROCYTE COUNT / HEMATOCRIT / HEMOGLOBIN / LEUKOCYTE COUNT / LYMPHOCYTE / MEAN CORPUSCULAR HEMOGLOBIN / MEAN CORPUSCULAR HEMOGLOBIN CONCENTRATION / MEAN CORPUSCULAR VOLUME / MONOCYTE / NEUTROPHIL / PLATELET COUNT: tissue Blood; for ALANINE AMINOTRANSFERASE / ALBUMIN / ALKALINE PHOSPHATASE / ASPARTATE AMINOTRANSFERASE / BLOOD UREA NITROGEN / CHLORIDE / CHOLESTEROL / CREATINE PHOSPHOKINASE / CREATININE / GLUCOSE / PHOSPHORUS / POTASSIUM / SODIUM / TOTAL BILIRUBIN / TOTAL PROTEIN: tissue Plasma
[1] = 0 mg/kg, 72 h, dose level Control, time 3 day
[2] = 0 mg/kg, 120 h, dose level Control, time 5 day
[3] = 36 mg/kg, 72 h, dose level Low, time 3 day
[4] = 36 mg/kg, 120 h, dose level Low, time 5 day

CCCCc1oc2ccccc2c1C(=O)c1cc(I)c(OCCN(CC)CC)c(I)c1 [AMIODARONE]
BASOPHIL [1]: 0%
EOSINOPHIL [1]: 0%
ERYTHROCYTE COUNT [1]: 6.19 x10E6/uL
HEMATOCRIT [1]: 36.94%
HEMOGLOBIN [1]: 14.58 G/DL
LEUKOCYTE COUNT [1]: 11.54 x10E3/uL
LYMPHOCYTE [1]: 84.8%
MEAN CORPUSCULAR HEMOGLOBIN [1]: 23.58 pg
MEAN CORPUSCULAR HEMOGLOBIN CONCENTRATION [1]: 39.44 G/DL
MEAN CORPUSCULAR VOLUME [1]: 59.76 fL
MONOCYTE [1]: 1.4%
NEUTROPHIL [1]: 13.8%
PLATELET COUNT [1]: 1068.8 x10E3/uL
ALANINE AMINOTRANSFERASE [1]: 38.17 u/L
ALBUMIN [1]: 3.88 G/DL
ALKALINE PHOSPHATASE [1]: 391.33 u/L
ASPARTATE AMINOTRANSFERASE [1]: 69.83 u/L
BLOOD UREA NITROGEN [1]: 15 mg/dL
CHLORIDE [1]: 104.17 MEQ/L
CHOLESTEROL [1]: 72.17 mg/dL
CREATINE PHOSPHOKINASE [1]: 174.33 u/L
CREATININE [1]: 0.58 mg/dL
GLUCOSE [1]: 192.67 mg/dL
PHOSPHORUS [1]: 10.52 mg/dL
POTASSIUM [1]: 6.8 MEQ/L
SODIUM [1]: 149.67 MEQ/L
TOTAL BILIRUBIN [1]: 0.78 mg/dL
TOTAL PROTEIN [1]: 6.28 G/DL
BASOPHIL [2]: 0%
EOSINOPHIL [2]: 0.17%
ERYTHROCYTE COUNT [2]: 6.72 x10E6/uL
HEMATOCRIT [2]: 40.02%
HEMOGLOBIN [2]: 15.83 G/DL
LEUKOCYTE COUNT [2]: 9.5 x10E3/uL
LYMPHOCYTE [2]: 87.17%
MEAN CORPUSCULAR HEMOGLOBIN [2]: 23.57 pg
MEAN CORPUSCULAR HEMOGLOBIN CONCENTRATION [2]: 39.62 G/DL
MEAN CORPUSCULAR VOLUME [2]: 59.55 fL
MONOCYTE [2]: 1.67%
NEUTROPHIL [2]: 11%
PLATELET COUNT [2]: 1053.67 x10E3/uL
ALANINE AMINOTRANSFERASE [2]: 26.33 u/L
ALBUMIN [2]: 4.02 G/DL
ALKALINE PHOSPHATASE [2]: 316.67 u/L
ASPARTATE AMINOTRANSFERASE [2]: 61.33 u/L
BLOOD UREA NITROGEN [2]: 18.67 mg/dL
CHLORIDE [2]: 108 MEQ/L
CHOLESTEROL [2]: 65.17 mg/dL
CREATINE PHOSPHOKINASE [2]: 161.17 u/L
CREATININE [2]: 0.75 mg/dL
GLUCOSE [2]: 177.33 mg/dL
PHOSPHORUS [2]: 9.72 mg/dL
POTASSIUM [2]: 6.18 MEQ/L
SODIUM [2]: 150.5 MEQ/L
TOTAL BILIRUBIN [2]: 0.68 mg/dL
TOTAL PROTEIN [2]: 6.55 G/DL
BASOPHIL [3]: 0%
EOSINOPHIL [3]: 0%
ERYTHROCYTE COUNT [3]: 6.18 x10E6/uL
HEMATOCRIT [3]: 36.8%
HEMOGLOBIN [3]: 14.4 G/DL
LEUKOCYTE COUNT [3]: 12.87 x10E3/uL
LYMPHOCYTE [3]: 77%
MEAN CORPUSCULAR HEMOGLOBIN [3]: 23.4 pg
MEAN CORPUSCULAR HEMOGLOBIN CONCENTRATION [3]: 39.13 G/DL
MEAN CORPUSCULAR VOLUME [3]: 59.8 fL
MONOCYTE [3]: 2.67%
NEUTROPHIL [3]: 20.33%
PLATELET COUNT [3]: 1095 x10E3/uL
ALANINE AMINOTRANSFERASE [3]: 33 u/L
ALBUMIN [3]: 3.77 G/DL
ALKALINE PHOSPHATASE [3]: 365.33 u/L
ASPARTATE AMINOTRANSFERASE [3]: 56.33 u/L
BLOOD UREA NITROGEN [3]: 15 mg/dL
CHLORIDE [3]: 103.67 MEQ/L
CHOLESTEROL [3]: 84.33 mg/dL
CREATINE PHOSPHOKINASE [3]: 134.67 u/L
CREATININE [3]: 0.7 mg/dL
GLUCOSE [3]: 159.33 mg/dL
PHOSPHORUS [3]: 11.13 mg/dL
POTASSIUM [3]: 6.63 MEQ/L
SODIUM [3]: 148.67 MEQ/L
TOTAL BILIRUBIN [3]: 0.7 mg/dL
TOTAL PROTEIN [3]: 6.13 G/DL
BASOPHIL [4]: 0%
EOSINOPHIL [4]: 0.33%
ERYTHROCYTE COUNT [4]: 6.73 x10E6/uL
HEMATOCRIT [4]: 39.47%
HEMOGLOBIN [4]: 15.6 G/DL
LEUKOCYTE COUNT [4]: 11.67 x10E3/uL
LYMPHOCYTE [4]: 86.33%
MEAN CORPUSCULAR HEMOGLOBIN [4]: 23.27 pg
MEAN CORPUSCULAR HEMOGLOBIN CONCENTRATION [4]: 39.63 G/DL
MEAN CORPUSCULAR VOLUME [4]: 58.73 fL
MONOCYTE [4]: 2%
NEUTROPHIL [4]: 11.33%
PLATELET COUNT [4]: 1213.67 x10E3/uL
ALANINE AMINOTRANSFERASE [4]: 26 u/L
ALBUMIN [4]: 3.93 G/DL
ALKALINE PHOSPHATASE [4]: 392.33 u/L
ASPARTATE AMINOTRANSFERASE [4]: 57.67 u/L
BLOOD UREA NITROGEN [4]: 14.67 mg/dL
CHLORIDE [4]: 106.67 MEQ/L
CHOLESTEROL [4]: 88 mg/dL
CREATINE PHOSPHOKINASE [4]: 148.33 u/L
CREATININE [4]: 0.7 mg/dL
GLUCOSE [4]: 154.67 mg/dL
PHOSPHORUS [4]: 10.83 mg/dL
POTASSIUM [4]: 6.67 MEQ/L
SODIUM [4]: 150.33 MEQ/L
TOTAL BILIRUBIN [4]: 0.93 mg/dL
TOTAL PROTEIN [4]: 6.6 G/DL
